Holding throughout (type): cell-based
For experiment [1], the system named is MCF7. Kind of experiment: NCI COMPARE panel (SRB growth inhibition), MCF7. The conditions noted are these: Homo sapiens; Breast Cancer, MCF7, 48 h. How it is done: (§1) The human tumor cell lines of the cancer screening panel are grown in RPMI 1640 medium containing 5% fetal bovine serum and 2 mM L-glutamine. For a typical screening experiment, cells are inoculated into 96 well microtiter plates in 100 µL at plating densities ranging from 5,000 to 40,000 cells/well depending on the doubling time of individual cell lines. After cell inoculation, the microtiter plates are incubated at 37° C., 5% CO2, 95% air and 100% relative humidity for 24 h prior to addition of experimental drugs.
(§2) After 24 h, two plates of each cell line are fixed in situ with TCA, to represent a measurement of the cell population for each cell line at the time of drug addition (Tz). Experimental drugs are solubilized in dimethyl sulfoxide at 400-fold the desired final maximum test concentration and stored frozen prior to use. […]
(§3) Following drug addition, the plates are incubated for an additional 48 h at 37° C., 5 % CO2, 95% air, and 100% relative humidity. […] Bound stain is subsequently solubilized with 10 mM trizma base, and the absorbance is read on an automated plate reader at a wavelength of 515 nm. […] Using the seven absorbance measurements [time zero, (Tz), control growth, (C), and test growth in the presence of drug at the five concentration levels (Ti)], the percentage growth is calculated at each of the drug concentrations levels. Percentage growth inhibition is calculated as: […]

Experiment [2] deals with MDA-MB-468. Kind of experiment: NCI COMPARE panel (SRB growth inhibition), MDA-MB-468. To be noted: Homo sapiens; Breast Cancer, MDA-MB-468, 48 h. On the procedure: as §1, §2, §3
For experiment [3], the system named is SF-268. The experiment in a line: NCI COMPARE panel (SRB growth inhibition), SF-268. To be noted: Homo sapiens; CNS Cancer, SF-268, 48 h. On the procedure:
as §1, §2, §3

The subject of experiment [4] is SF-295. The experiment in a line: NCI COMPARE panel (SRB growth inhibition), SF-295. To be noted: Homo sapiens; CNS Cancer, SF-295, 48 h. On the procedure: as §1, §2, §3
Experiment [5] concerns SNB-75. Kind of experiment: NCI COMPARE panel (SRB growth inhibition), SNB-75. The conditions noted are these: Homo sapiens; CNS Cancer, SNB-75, 48 h. On the procedure:
as §1, §2, §3

Experiment [6] deals with U251. The experiment in a line: NCI COMPARE panel (SRB growth inhibition), U251. The conditions noted are these: Homo sapiens, U-251; CNS Cancer, U251, 48 h. On the procedure: as §1, §2, §3
The test system of experiment [7] is HCT-116. The experiment in a line: NCI COMPARE panel (SRB growth inhibition), HCT-116. The conditions noted are these: Homo sapiens; Colon Cancer, HCT-116, 48 h. On the procedure:
as §1, §2, §3

For experiment [8], the system named is HCT-15. The experiment in a line: NCI COMPARE panel (SRB growth inhibition), HCT-15. The conditions noted are these: Homo sapiens; Colon Cancer, HCT-15, 48 h. On the procedure:
as §1, §2, §3

In experiment [9] the test system is KM12. Kind of experiment: NCI COMPARE panel (SRB growth inhibition), KM12. The conditions noted are these: Homo sapiens; Colon Cancer, KM12, 48 h. How it is done: as §1, §2, §3
The test system of experiment [10] is MOLT-4. Kind of experiment: NCI COMPARE panel (SRB growth inhibition), MOLT-4. To be noted: Homo sapiens; Leukemia, MOLT-4, 48 h. How it is done: as §1, §2, §3
Experiment [11] deals with MALME-3M. The experiment in a line: NCI COMPARE panel (SRB growth inhibition), MALME-3M. To be noted: Homo sapiens, Melanoma, 48 h. On the procedure:
as §1, §2, §3

In experiment [12] the test system is M14. Kind of experiment: NCI COMPARE panel (SRB growth inhibition), M14. To be noted: Homo sapiens; Melanoma, M14, 48 h. On the procedure:
as §1, §2, §3

The subject of experiment [13] is SK-MEL-2. The experiment in a line: NCI COMPARE panel (SRB growth inhibition), SK-MEL-2. The conditions noted are these: Homo sapiens; Melanoma, SK-MEL-2, 48 h. On the procedure: as §1, §2, §3
Experiment [14] has as its system UACC-62. Kind of experiment: NCI COMPARE panel (SRB growth inhibition), UACC-62. The conditions noted are these: Homo sapiens; Melanoma, UACC-62, 48 h. How it is done:
as §1, §2, §3

In experiment [15] the test system is A549/ATCC. The experiment in a line: NCI COMPARE panel (SRB growth inhibition), A549/ATCC. To be noted: Homo sapiens, Non-Small Cell Lung Cancer, 48 h. How it is done:
as §1, §2, §3

Experiment [16] relates to HOP-62. The experiment in a line: NCI COMPARE panel (SRB growth inhibition), HOP-62. The conditions noted are these: Homo sapiens; Non-Small Cell Lung Cancer, HOP-62, 48 h. On the procedure: as §1, §2, §3
In experiment [17] the test system is NCI-H23. Kind of experiment: NCI COMPARE panel (SRB growth inhibition), NCI-H23. To be noted: Homo sapiens; Non-Small Cell Lung Cancer, NCI-H23, 48 h. On the procedure: as §1, §2, §3
The subject of experiment [18] is NCI-H522. Kind of experiment: NCI COMPARE panel (SRB growth inhibition), NCI-H522. The conditions noted are these: Homo sapiens; Non-Small Cell Lung Cancer, NCI-H522, 48 h. How it is done:
as §1, §2, §3

Experiment [19] concerns OVCAR-8. The experiment in a line: NCI COMPARE panel (SRB growth inhibition), OVCAR-8. The conditions noted are these: Homo sapiens; Ovarian Cancer, OVCAR-8, 48 h. How it is done: as §1, §2, §3
Experiment [20] relates to PC-3. Kind of experiment: NCI COMPARE panel (SRB growth inhibition), PC-3. To be noted: Homo sapiens; Prostate Cancer, PC-3, 48 h. On the procedure: as §1, §2, §3
Experiment [21] deals with 786-0. The experiment in a line: NCI COMPARE panel (SRB growth inhibition), 786-0. The conditions noted are these: Homo sapiens; Renal Cancer, 786-0, 48 h. On the procedure: as §1, §2, §3
The test system of experiment [22] is RXF 393. Kind of experiment: NCI COMPARE panel (SRB growth inhibition), RXF 393. The conditions noted are these: Homo sapiens; Renal Cancer, RXF 393, 48 h. How it is done: as §1, §2, §3
The subject of experiment [23] is SN12C. The experiment in a line: NCI COMPARE panel (SRB growth inhibition), SN12C. The conditions noted are these: Homo sapiens, Renal Cancer, 48 h. On the procedure: as §1, §2, §3
For experiment [24], the system named is UO-31. Kind of experiment: NCI COMPARE panel (SRB growth inhibition), UO-31. The conditions noted are these: Homo sapiens; Renal Cancer, UO-31, 48 h. How it is done:
as §1, §2, §3

Where only a bound is given, the exact number is not on record here.

Consider two molecules from patent US20230133958A1, “COMPOUNDS USEFUL IN MODULATING EGFR AND PI3K” (Mekanistic Therapeutics LLC, priority 2021, published 2023).

With `CS(=O)(=O)Nc1cc(-c2ccc3ncc(C#N)c(Nc4cccc(Cl)c4F)c3c2)cnc1Cl` [Compound 10, N-[2-chloro-5-[4-(3-chloro-2-fluoro-anilino)-3-cyano-6-quinolyl]-3-pyridyl]methanesulfonamide], the GI50 in experiment [1] was not above 75 nM; in experiment [2], not above 75 nM; in experiment [3], 75 to 125 nM; in [4], 125 to 250 nM; in experiment [5], not above 75 nM; in experiment [6], not above 75 nM. For the same molecule, the GI50 in [7] was not above 75 nM; in experiment [8], 75 to 125 nM; in experiment [9], more than 250 nM; in experiment [10], 75 to 125 nM; in experiment [11], 75 to 125 nM; in [12], more than 250 nM. Also, the GI50 in experiment [13] is not above 75 nM; in [14], 75 to 125 nM; in [15], more than 250 nM; in experiment [16], 125 to 250 nM; in experiment [17], 125 to 250 nM; in experiment [18], more than 250 nM. For the same molecule, the GI50 in experiment [19] was more than 250 nM; in experiment [20] it was 125 to 250 nM; in experiment [21], more than 250 nM; in [22], not above 75 nM; in experiment [23] it was 75 to 125 nM; in [24], 125 to 250 nM.

With `CS(=O)(=O)Nc1cc(-c2ccc3ncnc(Nc4cccc(Cl)c4F)c3c2)cnc1Cl` [Compound 6, N-[2-chloro-5-[4-(3-chloro-2-fluoro-anilino)quinazolin-6-yl]-3-pyridyl] methanesulfonamide], the GI50 in [1] was not above 75 nM; in experiment [2], 125 to 250 nM; in [3] it was 125 to 250 nM; in experiment [4] it was 125 to 250 nM; in experiment [5], not above 75 nM; in experiment [6], more than 250 nM. Moreover, the GI50 was 125 to 250 nM in experiment [7]; 125 to 250 nM in [8]; more than 250 nM in experiment [9]; 125 to 250 nM in experiment [10]; not above 75 nM in [11]; 125 to 250 nM in experiment [12]. The concentration for 50% growth inhibition (GI50) in experiment [13] is 125 to 250 nM; in experiment [14] it was not above 75 nM; in [15], 125 to 250 nM; in experiment [16] it was 75 to 125 nM; in [17], 125 to 250 nM; in experiment [18] it was 125 to 250 nM. Further, the GI50 in experiment [19] was more than 250 nM; in [20], 125 to 250 nM; in experiment [21] it was 125 to 250 nM; in experiment [22] it was 75 to 125 nM; in [23], 125 to 250 nM; in experiment [24], not above 75 nM.
